Results as given in US20050202463A1, “Modulators of dimethylarginine dimethylaminohydrolase and methods of use thereof” (priority 2003, published 2005).

Experiments:
mice = assay: plasma glucose clearance after i.p. insulin (insulin sensitivity); assay type: in vivo; settings: wild-type female mice, ADMA 75 mg/kg i.p. after 4 h fasting, insulin injected 2 h later, compared to PBS-treated wild-type mice
Experimental: Experiments were performed to assess insulin sensitivity by measuring plasma glucose clearance rate in these DDAH transgenic mice. After 4 hours of fasting, wildtype female mice were injected intraperitoneally with either ADMA (75 mg/kg), which induces insulin resistance, or phosphate buffered saline (PBS); the same dosage was given to the transgenic mice (n=3 in each group). After two hours, insulin was injected; venous blood glucose was assayed by a glucometer every 5 minutes for an hour. The half-life of glucose disappearance from plasma was calculated using a first-order decay model; plasma ADMA was measured by HPLC.

ADMA levels = settings: reported in the literature (Stuhlinger et al. 2002; Wheatcroft et al. 2003); cited from earlier work

Compound	plasma glucose response to insulin (mice)	effect on ADMA levels (ADMA levels)
CN(C)C(N)=NCCC[C@H](N)C(=O)O [ADMA, asymmetric dimethylarginine]	delayed and attenuated drop in plasma glucose in response to insulin	–
CN(C)C(=N)N=C(N)N [metformin]	–	decrease circulating ADMA levels
